Converted amounts (≈) assume the structure as drawn.
Experiments:
melanin = experiment: Binding capacity of compounds to melanin; assay type: in vitro ADME, cuttlefish (Sepia officinalis); settings: cuttlefish (Sepia officinalis), melanin suspension (1 mg/mL); 1 mg/mL melanin in PBS pH 7.4, 2 μM compound, 2 h at 37° C.; read-out: Fu % (percentage of free drug)
In short: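 Compound (2 μM final) incubated with washed Sepia melanin (1 mg/mL, PBS pH 7.4) 2 h at 37° C with shaking; PBS with 0.1% BSA served as blank. Supernatants quantified by LC-MS/MS; bound fraction Fb derived from melanin versus blank concentration.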

VEGFR2 [1] = molecular target: T1, VEGFR2 (Homo sapiens, UniProt P35968); experiment: Kinase inhibition, Mobility Shift Assay/IMAP, VEGFR2; assay type: biochemical; parameters: purchased Carna 08-191
In short: (§1)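 Substrate conversion (phosphorylated vs non-phosphorylated) read by mobility shift on Caliper EZ Reader II and converted to % inhibition relative to no-enzyme and DMSO controls. IC50 fitted from % inhibition versus log compound concentration.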
Target sequence in this assay (P35968 790-1356 limits assumed): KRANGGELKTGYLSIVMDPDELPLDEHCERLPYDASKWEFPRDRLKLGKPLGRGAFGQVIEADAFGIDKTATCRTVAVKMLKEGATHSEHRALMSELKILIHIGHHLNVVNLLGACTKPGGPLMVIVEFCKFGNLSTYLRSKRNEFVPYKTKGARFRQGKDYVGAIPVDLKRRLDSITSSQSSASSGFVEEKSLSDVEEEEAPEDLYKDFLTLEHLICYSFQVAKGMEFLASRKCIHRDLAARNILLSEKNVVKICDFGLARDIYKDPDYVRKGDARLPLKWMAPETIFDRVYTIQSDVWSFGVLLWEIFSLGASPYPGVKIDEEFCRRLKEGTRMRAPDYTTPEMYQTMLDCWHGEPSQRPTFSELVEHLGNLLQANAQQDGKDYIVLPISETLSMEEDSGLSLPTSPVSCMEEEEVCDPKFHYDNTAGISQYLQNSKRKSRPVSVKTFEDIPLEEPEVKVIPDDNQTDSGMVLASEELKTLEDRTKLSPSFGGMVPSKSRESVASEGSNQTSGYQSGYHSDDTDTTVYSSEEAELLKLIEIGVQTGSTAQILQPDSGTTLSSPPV

[2] = Solubility test in buffer, LC-MS; assay type: physicochemical; settings: aqueous buffer, thermodynamic from solid, room temperature, shaking 8 h, pH not given (method: pH 2.0, 6.5, 7.4)
Procedure: Accurately weigh 3 portions of about 2 mg of the compound, and add appropriate volumes of buffers with the pHs of 2.0, 6.5, and 7.4 respectively to obtain a solution with a concentration of 2 mg/mL. After sonication for 10 min, fix them on a shaker and shaking for 8 h at room temperature. After shaking, sonicate for 10 min and centrifuge for 15 min at 13,000 rpm. Pipette 0.1 mL of supernatant into a new tube, shake and rinse it with 5 mL, and discard the liquid. Transfer 0.5 mL of the supernatant again to a new tube, centrifuge it for 15 min at 13,000 rpm, then collect the supernatant (if necessary, dilute with water) and analyze it by LC-MS. The sample concentrations at 3~5 points are subjected to fitting and reticle for quantification.

EGFR = molecular target: T2, EGFR (Homo sapiens, UniProt P00533); experiment: Kinase inhibition, Mobility Shift Assay/IMAP, EGFR; assay type: biochemical
T2 construct: purchased Carna 08-115
In short: as §1

HUVEC cells = experiment: Inhibition of VEGF-induced HUVEC cell proliferation, CellTiter Glo; assay type: cell-based; settings: Homo sapiens, 20 ng/ml VEGF, 72 hours
Source text: In this experiment, human umbilical vein endothelial cells (HUVEC, Lonza) were used. HUVEC cells are primary cells isolated from umbilical veins. This cell line is a model system to study the functions of endothelial cells. Endothelial cell proliferation in response to VEGF is crucial to the pathological angiogenesis associated with conditions such as tumor development and ocular neovascular diseases.
In this assay, a luciferase bioluminescence assay (CellTiter GLU™, Promega) is used to determine the inhibitory activity of the compounds against VEGF-induced HUVEC cell proliferation and viability. CellTiter GLO™ is a homogeneous method for quantifying the count of viable cells in culture based on ATP, an indicator of metabolically active cells. In this assay, the compound was incubated with HUVEC cells for 72 hours, and then the inhibitory activity of the resulting compound against VEGF-induced HUVEC cell proliferation was measured on the En Vision plate reader.
With the RPMI-1640 medium (plus 5% FBS, 1% Penicillin-Streptomycin) used for the HUVEC cell proliferation experiment, add a cell suspension to a 96-well plate at 100 μl per well, i.e., 4000 HUVEC cells/well, and incubate them overnight in a 5% CO2 incubator at 37° C. (serum starvation). After 24 hours, add 96 μl of the experimental medium to the cell wells, and then add 2 μl of the compound to the cell wells; and after 1 hour following the addition of the compound, add 2 μl of 2 μg/ml VEGF to the cell wells. Add 0.1% DMSO and 20 ng/ml VEGF to cell wells to serve as high-reading control wells. Take cell-free wells with only medium as low-reading control wells. […] After 72 hours of incubation of the cell plate in the incubator, hold the cell plate to be tested at room temperature and discard 100 μl of medium per well. Add 100 μl of CTG reagent (CellTiter Glo kit) per well, oscillate the cell plate in a fast oscillator for 3 minutes, and keep the cell plate at room temperature in the dark for 30 minutes. Read the chemiluminescence signal value with the Envision instrument.
X indicates the log value of compound concentration, Y indicates the inhibition rate (% inhibition), Top indicates the readout of the high-reading control well.

TIE2 = molecular target: T3, TIE2 (Homo sapiens, UniProt Q02763); experiment: Kinase inhibition, Mobility Shift Assay/IMAP, TIE2; assay type: biochemical
T3 construct: purchased BPS 40270
In short: as §1

VEGFR1 = molecular target: T4, VEGFR1 (Homo sapiens, UniProt P17948); experiment: Kinase inhibition, Mobility Shift Assay/IMAP, VEGFR1; assay type: biochemical
T4 construct: purchased Invitrogen PR6731B
In short: as §1

VEGFR3 = molecular target: T5, VEGFR3 (Homo sapiens, UniProt P35916); experiment: Kinase inhibition, Mobility Shift Assay/IMAP, VEGFR3; assay type: biochemical
T5 construct: purchased Invitrogen PV4129
In short: as §1

VEGFR2 [3] = molecular target: T1, VEGFR2; experiment: Inhibition of VEGF-induced VEGFR2 autophosphorylation (pVEGFR2) in HUVEC cells, ELISA; assay type: cell-based; parameters: endogenous in cells; host or cells: HUVEC; settings: 50 ng/mL human VEGF, compound 1 h
Source text: Vascular endothelial growth factor receptor 2 (VEGFR2) is a primary receptor for VEGF-induced endothelial cell signaling. After ligand binding, VEGFR2 is autophosphorylated and activated. The main function of signaling from VEGFR2 is to induce vascularization during development and after tissue injury, and to bypass blocked blood vessels. Pathologically, VEGF and VEGFR2 are involved in tumor angiogenesis and vascular leakage. They are considered to be main participants in many different cancers and ocular diseases that accompany pathological neovascularization. This assay measured the ability of the compounds to inhibit VEGF-induced VEGFR2 autophosphorylation (pVEGFR2) in HUVEC cells by using ELISA.
Culture cells in a cell culture flask to reach a fusion degree of 60%-80% before cell inoculation. Dilute the cell suspension to […] with a pre-warmed complete medium. Add 80 μL of the cell suspension to all wells of a 96-well cell plate (Corning-3599); and incubate the plate overnight at 37° C. in the presence of 5% CO2. Dissolve the compound powder to 10 mM with DMSO and store it in a nitrogen cabinet. Compound dilution plate: Add a reference compound Ponatinib or a compound to be tested to a 96 V-well plate (Axygen-WIPP 2280) at concentrations achieved as follows: performing 3-fold gradient dilution starting from 5 mM (5 μL of 10 mM compound solution plus 5 μL of DMSO) for a total of 8 concentration points. […] Transfer 20 μL of the diluted compound from the intermediate plate to a cell plate. Then, incubate the cell plate for 1 h at 37° C. in the presence of 5% CO2. After the compound was treated for 1 h, add 25 μL of 250 ng/ml human VEGF at a final concentration of 50 ng/mL to a 96-well plate; and incubate the plate for 5 min at 37° C. in the presence of 5% CO2, centrifuge the plate for 10 min at 3,000 rpm, remove the medium and wash the cells once with 300 μL of pre-chilled DPBS per well. Then, centrifuge the plate for 10 min at 4,000 rpm, remove DPBS, and add 110 μL of pre-chilled 1× cell lysis buffer per well to the 96-well plate. Shake the plate for 40 min at 4° C. Then, freeze the plate in a refrigerator at −80° C. On the next day, remove the plate from the refrigerator at −80° C., thaw the plate, centrifuge the plate for 10 min at 3500 rpm, and add 100 μL of the supernatant per well to an ELISA plate. Seal the plate and incubate it for 2 h at 37° C. Wash the wells 4 times with 1× wash buffer. Add 100 μL of recombinant detection antibody per well. Seal the plate, incubate the plate for 1 h at 37° C., and repeat the step of plate washing. Add 100 μL of secondary antibody per well. Seal the plate, incubate the plate for 30 min at 37° C., and repeat the step of plate washing. Add 100 μL of TMB (protected from light) per well. Seal the plate, incubate the plate for 30 min at 37° C., and add 100 μL of the stop solution per well. Gently shake for 30 sec, measure the absorbance with a SpectraMax® 340 PC 384 Absorbance Microplate Reader within 30 min, and read an optical density value at 450 nm. Conduct data analysis using XL Fit software:
Conduct curve fitting using the 4 Parameter Logistic Model or Sigmoidal Dose-Response Model to obtain IC50 values.
X indicates the log value of compound concentration, Y indicates the inhibition rate (% inhibition), Top indicates the readout of the negative control wells, and Bottom indicates the readout of the positive control well.
Target sequence in this assay (P35968 20-1356): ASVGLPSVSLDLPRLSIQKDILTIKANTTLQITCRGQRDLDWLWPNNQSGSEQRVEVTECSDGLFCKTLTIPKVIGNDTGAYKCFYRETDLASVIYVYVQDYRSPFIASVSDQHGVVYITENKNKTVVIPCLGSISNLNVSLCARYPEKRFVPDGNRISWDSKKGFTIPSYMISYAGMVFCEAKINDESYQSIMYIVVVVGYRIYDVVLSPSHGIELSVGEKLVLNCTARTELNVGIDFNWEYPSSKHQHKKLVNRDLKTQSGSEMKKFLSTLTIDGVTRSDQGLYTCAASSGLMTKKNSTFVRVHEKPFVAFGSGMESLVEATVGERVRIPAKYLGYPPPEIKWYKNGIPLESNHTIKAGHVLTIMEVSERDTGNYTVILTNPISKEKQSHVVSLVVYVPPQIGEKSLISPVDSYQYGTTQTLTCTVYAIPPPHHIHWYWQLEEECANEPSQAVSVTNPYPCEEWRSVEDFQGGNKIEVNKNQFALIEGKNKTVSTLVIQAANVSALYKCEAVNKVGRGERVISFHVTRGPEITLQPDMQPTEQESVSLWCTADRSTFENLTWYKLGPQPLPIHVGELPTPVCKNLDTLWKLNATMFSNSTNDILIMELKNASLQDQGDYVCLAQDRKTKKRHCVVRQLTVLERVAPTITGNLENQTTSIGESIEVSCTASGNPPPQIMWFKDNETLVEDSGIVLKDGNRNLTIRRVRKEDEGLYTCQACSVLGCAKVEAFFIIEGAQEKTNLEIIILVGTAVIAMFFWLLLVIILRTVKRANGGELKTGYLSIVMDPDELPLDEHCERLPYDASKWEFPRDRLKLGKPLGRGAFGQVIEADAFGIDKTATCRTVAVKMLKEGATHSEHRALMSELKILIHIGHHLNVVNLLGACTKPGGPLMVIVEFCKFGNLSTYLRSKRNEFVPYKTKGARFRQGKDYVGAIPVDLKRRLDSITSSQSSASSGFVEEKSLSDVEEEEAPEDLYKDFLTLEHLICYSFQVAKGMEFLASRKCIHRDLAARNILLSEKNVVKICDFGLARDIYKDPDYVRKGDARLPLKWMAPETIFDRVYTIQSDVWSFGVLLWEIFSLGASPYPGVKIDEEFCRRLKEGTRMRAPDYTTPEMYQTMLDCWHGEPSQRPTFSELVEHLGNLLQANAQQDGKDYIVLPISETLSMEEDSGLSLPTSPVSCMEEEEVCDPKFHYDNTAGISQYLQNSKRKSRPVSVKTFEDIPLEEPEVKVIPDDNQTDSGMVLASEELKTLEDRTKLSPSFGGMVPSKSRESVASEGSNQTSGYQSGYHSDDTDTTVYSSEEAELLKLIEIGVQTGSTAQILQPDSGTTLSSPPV

T3 sequence (Q02763 23-1124): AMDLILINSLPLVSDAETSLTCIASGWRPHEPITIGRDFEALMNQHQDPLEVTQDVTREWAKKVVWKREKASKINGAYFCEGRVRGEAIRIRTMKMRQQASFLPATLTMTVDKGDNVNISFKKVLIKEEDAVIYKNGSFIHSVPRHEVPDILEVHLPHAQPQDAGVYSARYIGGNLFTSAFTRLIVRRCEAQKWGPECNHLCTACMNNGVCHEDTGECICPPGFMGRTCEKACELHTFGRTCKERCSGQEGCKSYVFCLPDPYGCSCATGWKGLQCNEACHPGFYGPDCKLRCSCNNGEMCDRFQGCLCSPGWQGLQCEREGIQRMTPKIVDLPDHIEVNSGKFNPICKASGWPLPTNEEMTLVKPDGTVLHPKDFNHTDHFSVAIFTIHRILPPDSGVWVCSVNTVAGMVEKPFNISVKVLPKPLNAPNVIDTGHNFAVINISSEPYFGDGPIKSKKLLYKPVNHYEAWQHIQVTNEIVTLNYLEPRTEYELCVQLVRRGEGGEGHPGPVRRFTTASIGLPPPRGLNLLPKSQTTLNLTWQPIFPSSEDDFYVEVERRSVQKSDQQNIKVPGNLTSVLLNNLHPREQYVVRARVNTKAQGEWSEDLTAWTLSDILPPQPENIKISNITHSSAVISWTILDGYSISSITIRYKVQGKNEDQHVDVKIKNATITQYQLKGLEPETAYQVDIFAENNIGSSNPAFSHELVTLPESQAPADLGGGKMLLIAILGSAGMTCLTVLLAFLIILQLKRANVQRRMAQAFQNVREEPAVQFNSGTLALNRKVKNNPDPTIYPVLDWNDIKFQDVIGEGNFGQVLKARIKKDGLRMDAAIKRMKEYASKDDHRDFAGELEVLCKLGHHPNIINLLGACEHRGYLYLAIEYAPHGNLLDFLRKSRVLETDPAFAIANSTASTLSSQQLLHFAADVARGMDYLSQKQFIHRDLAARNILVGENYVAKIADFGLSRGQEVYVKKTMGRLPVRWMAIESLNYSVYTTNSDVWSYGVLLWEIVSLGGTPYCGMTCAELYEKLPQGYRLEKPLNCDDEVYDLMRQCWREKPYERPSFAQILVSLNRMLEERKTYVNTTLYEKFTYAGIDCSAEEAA
T2 sequence (P00533 669-1210 limits assumed): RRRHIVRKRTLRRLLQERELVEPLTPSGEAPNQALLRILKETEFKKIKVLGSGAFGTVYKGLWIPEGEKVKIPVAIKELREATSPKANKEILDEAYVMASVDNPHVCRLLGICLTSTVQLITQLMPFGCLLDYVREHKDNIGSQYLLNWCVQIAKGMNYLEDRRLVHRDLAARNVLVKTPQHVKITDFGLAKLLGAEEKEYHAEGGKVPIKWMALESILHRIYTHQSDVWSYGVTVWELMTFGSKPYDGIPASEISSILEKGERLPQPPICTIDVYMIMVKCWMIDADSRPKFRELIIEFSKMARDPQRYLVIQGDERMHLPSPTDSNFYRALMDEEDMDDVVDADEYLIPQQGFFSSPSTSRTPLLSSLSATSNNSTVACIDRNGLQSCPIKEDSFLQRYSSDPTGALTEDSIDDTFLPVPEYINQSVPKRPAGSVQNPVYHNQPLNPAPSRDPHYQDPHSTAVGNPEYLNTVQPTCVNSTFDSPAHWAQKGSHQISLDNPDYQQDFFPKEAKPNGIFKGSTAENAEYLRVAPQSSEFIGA
T5 sequence (P35916 25-1363): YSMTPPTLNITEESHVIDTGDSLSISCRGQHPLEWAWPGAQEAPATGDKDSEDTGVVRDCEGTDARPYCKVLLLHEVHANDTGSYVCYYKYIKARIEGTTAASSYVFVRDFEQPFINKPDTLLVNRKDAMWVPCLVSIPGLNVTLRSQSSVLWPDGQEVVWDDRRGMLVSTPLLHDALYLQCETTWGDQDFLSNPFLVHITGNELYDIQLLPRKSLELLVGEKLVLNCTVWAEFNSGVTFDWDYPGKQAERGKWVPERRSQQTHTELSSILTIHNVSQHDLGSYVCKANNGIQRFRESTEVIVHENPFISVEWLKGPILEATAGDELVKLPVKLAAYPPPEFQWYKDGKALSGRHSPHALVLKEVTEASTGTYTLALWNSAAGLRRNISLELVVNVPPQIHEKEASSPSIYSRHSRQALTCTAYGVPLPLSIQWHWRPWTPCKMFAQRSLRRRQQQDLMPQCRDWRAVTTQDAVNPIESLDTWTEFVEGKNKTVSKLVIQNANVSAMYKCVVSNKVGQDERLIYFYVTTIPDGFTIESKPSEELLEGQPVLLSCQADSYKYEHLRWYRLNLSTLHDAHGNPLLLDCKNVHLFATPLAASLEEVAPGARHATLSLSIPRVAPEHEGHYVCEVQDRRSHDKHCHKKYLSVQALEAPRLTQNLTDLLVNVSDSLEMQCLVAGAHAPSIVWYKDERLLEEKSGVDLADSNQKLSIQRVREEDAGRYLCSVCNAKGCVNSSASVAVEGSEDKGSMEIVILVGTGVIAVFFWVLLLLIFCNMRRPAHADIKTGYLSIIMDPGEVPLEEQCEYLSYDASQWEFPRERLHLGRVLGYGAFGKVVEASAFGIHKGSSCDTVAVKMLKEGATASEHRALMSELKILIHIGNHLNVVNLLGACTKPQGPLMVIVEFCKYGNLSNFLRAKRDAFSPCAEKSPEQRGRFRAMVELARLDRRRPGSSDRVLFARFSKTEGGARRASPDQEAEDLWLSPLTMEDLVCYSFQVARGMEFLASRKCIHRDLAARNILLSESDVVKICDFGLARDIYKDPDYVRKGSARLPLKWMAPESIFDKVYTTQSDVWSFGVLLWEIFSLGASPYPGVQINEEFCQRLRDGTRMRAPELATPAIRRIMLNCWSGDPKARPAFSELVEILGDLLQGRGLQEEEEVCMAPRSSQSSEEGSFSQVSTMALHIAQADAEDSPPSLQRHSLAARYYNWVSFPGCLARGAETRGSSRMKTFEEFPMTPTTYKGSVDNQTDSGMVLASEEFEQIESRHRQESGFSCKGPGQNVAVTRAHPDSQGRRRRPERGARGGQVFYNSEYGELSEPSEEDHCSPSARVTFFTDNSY

Row | fraction unbound at 2 h, 2 μM (melanin) | IC50 (VEGFR2 [1]) [nM] | solubility at 8 h [2] [µg/mL] | IC50 (EGFR) [µM] | IC50 (TIE2) [nM] | IC50 (VEGFR1) [nM] | IC50 (VEGFR3) [nM] | IC50 (VEGFR2 [3]) [nM] | Compound | IC50 (HUVEC cells) [nM]
1 | 0.0269 | 43.3 | 400 (≈ 807 µM) | > 60 | – | – | – | – | COc1cc(COc2nsc(NC(=O)NCCCCN3CC[C@@H](F)C3)c2C(N)=O)cc(OC)c1 [Compound T064, (R)-3-((3,5-dimethoxybenzyl)oxy)-5-(3-(4-(3-fluoropyrrolidin-1-yl)butyl)ureido)isothiazole-4-carboxamide] | 79.2
2 | 0.0231 | 4.36 | – | 15.2 | 147 | 13.4 | 18.7 | – | NC(=O)c1c(OCc2cc3c(cc2F)CCO3)nsc1NC(=O)NCCCCN1CCCC1 [Compound T071, 3-((5-fluoro-2,3-dihydrobenzofuran-6-yl)methoxy)-5-(3-(4-(pyrrolidin-1-yl)butyl)ureido)isothiazole-4-carboxamide] | 74.5
3 | 0.0526 | 4.47 | – | 5.14 | 115 | 11.8 | 21.4 | – | NC(=O)c1c(OCc2cc3c(cc2F)CCO3)nsc1NC(=O)NCCCCN1CC[C@@H](F)C1 [Compound T079, 3-[(5-fluoro-2,3-dihydrobenzofuran-6-yl)methoxy]-5-[4-[(3R)-3-fluoropyrrolidin-1-yl]butylcarbamoylamino]isothiazole-4-carboxamide] | 57.7
4 | 0.0666 | 1.56 | – | 16.5 | 4910 | – | – | 132 | NC(=O)c1c(OCc2cc(C(=O)NC3CC3)ccc2F)nsc1NC(=O)NCCCN1CCCC1 [Compound T098, 3-((5-(cyclopropylcarbamoyl)-2-fluorobenzyl)oxy)-5-(3-(3-(pyrrolidin-1-yl)propyl)ureido)isothiazole-4-carboxamide] | –
5 | 0.0372 | 2.55 | 1280 (≈ 2450 µM) | 5.68 | 2100 | – | – | – | NC(=O)c1c(OCc2cc(C(=O)NC3CC3)ccc2F)nsc1NC(=O)NCCCN1CC[C@@H](F)C1 [Compound T122, 3-[[5-(cyclopropylcarbamoyl)-2-fluoro-phenyl]methoxy]-5-[3-[(3R)-3-fluoropyrrolidin-1-yl]propylcarbamoylamino]isothiazole-4-carboxamide] | 44
6 | – | 1.2 | – | – | 1180 | – | – | 4.9 | NC(=O)c1c(OCc2cc(C(=O)NC3CC3)c(F)cc2F)nsc1NC(=O)NCCCCN1CCCC1 [Compound T128, 3-[[5-(cyclopropylcarbamoyl)-2,4-difluoro-phenyl]methoxy]-5-(4-pyrrolidin-1-ylbutylcarbamoylamino)isothiazole-4-carboxamide] | –
7 | 0.0889 | 11.9 | – | 15.6 | – | – | – | 71 | NC(=O)c1c(OCc2c(F)cc3c(c2F)OCC3)nsc1NC(=O)NCCCCN1CCCC1 [Compound T129, 3-[(5,7-difluoro-2,3-dihydrobenzofuran-6-yl)methoxy]-5-(4-pyrrolidin-1-ylbutylcarbamoylamino)isothiazole-4-carboxamide] | –
8 | 0.0629 | 17.4 | 278 (≈ 559 µM) | 15 | – | – | – | 19 | COc1ccc(F)c(COc2nsc(NC(=O)NCCCCN3CCCCC3)c2C(N)=O)c1F [Compound T131, 3-[(2,6-difluoro-3-methoxy-phenyl)methoxy]-5-[4-(1-piperidyl)butylcarbamoylamino]isothiazole-4-carboxamide] | –
9 | 0.0401 | 6.6 | – | 20.6 | – | – | – | 16 | NC(=O)c1c(OCc2c(F)cc3c(c2F)OCC3)nsc1NC(=O)NCCCCN1CC[C@H](O)C1 [Compound T134, 3-[(5,7-difluoro-2,3-dihydrobenzofuran-6-yl)methoxy]-5-[4-[(3S)-3-hydroxypyrrolidin-1-yl]butylcarbamoylamino]isothiazole-4-carboxamide] | –
10 | 0.0437 | 1.39 | – | > 60 | – | – | – | 2.2 | COc1cc(OC)c(F)c(COc2nsc(NC(=O)NCCC3CCN(C)CC3)c2C(N)=O)c1F [Compound T145, 3-[(2,6-difluoro-3,5-dimethoxy-phenyl)methoxy]-5-[2-(1-methyl-4-piperidyl)ethylcarbamoylamino]isothiazole-4-carboxamide] | –
